Experimental data: patent US20160367542A1, “NICOTINAMIDE DERIVATE IN THE TREATMENT OF ACUTE CORONARY SYNDROME” (GlaxoSmithKline LLC, priority 2012, published 2016)
≈ marks a conversion by molar mass, not a printed value.

Experiments:
physchem = type: physicochemical
Excerpt: There is therefore a need for a liquid formulation of said compound that is suitable for this mode of administration which solves this technical problem.

[1] = system: patients with acute coronary syndrome (non-ST elevation); assay: Recurrent infarction, infarct size and cardiac function in subjects with myocardial infarction (Example 4 study); type: in vivo, human
Method: (§1) In a randomised, double-blind, placebo controlled study, patients (n=approximately 500) who were admitted to a hospital with the diagnosis of acute coronary syndrome (specifically with non-ST elevation EKG findings upon entry) were provided an oral dose of losmapimod (7.5 mg or 15 mg and thereafter followed by 7.5 mg every 12 hours) or placebo for a period of 3 months.

[2] = system: high sensitivity C-reactive protein; assay: Inflammatory biomarkers in the FDG-PET/CT study; type: in vivo, human; details: 7.5 mg BID versus placebo; 95% CI −46, −5; p=0.023
Method: The primary objective was to measure in-vivo macrophage activity, by fluorodeoxyglucose (FDG) positron emission tomography (PET)/computed tomography (CT) imaging, in carotid arteries and aorta following a 12-week treatment with losmapimod (7.5 mg once daily [QD] and 7.5 mg twice daily [BID]), in the setting of chronic statin therapy, as compared to placebo. Secondary objectives included safety and tolerability of 12 weeks of dosing with losmapimod (7.5 mg QD or 7.5 mg BID). Inflammatory biomarkers and the effect of losmapimod 7.5 mg QD vs 7.5 mg BID on in-vivo macrophage activity, as assessed by FDG-PET/CT imaging. Ninety-nine patients with vascular inflammation on statins were randomised to losmapimod 7.5 mg once daily (QD), twice daily (BID) or placebo for 84 days. Vascular inflammation was assessed by PET-CT imaging of the carotid arteries and aorta using ^18fluorodeoxyglucose (FDG); the artery with the highest average maximum tissue-to-background ratio (TBR) at baseline (TBR>1.6). 92% of the subjects were white, 86% male, the mean age was 63.8 years (SD 6.13). 72% were current or ex-smokers. […] All subjects were on a stable dose of statin for at least 3 months prior to the first dose and continued on this dose of statin throughout the study.

CRP and IL6 levels = assay: Inflammatory markers in subjects with myocardial infarction (Example 4 study); type: in vivo, human; details: oral 7.5 mg or 15 mg then 7.5 mg every 12 hours; average 4.5 day initial hospital stay, setting of stent placement
Method: as §1

[3] = system: in-vivo macrophage activity in the carotid arteries and aorta of subjects with established atherosclerosis; assay: In-vivo macrophage activity study, FDG-PET/CT imaging; set-up: species or system human; details: 84 days
Excerpt: Macrophage activity and presence are critical features to the vulnerability of plaque in the vasculature. The pivotal nature of p38 MAPK in signaling stress, and its presence in macrophages can be monitored by labeling glucose (fluorodeoxyglucose), an otherwise key nutrient for macrophage activity, and observing its uptake in macrophages using […]. […] The primary objective was to measure in-vivo macrophage activity, by fluorodeoxyglucose (FDG) positron emission tomography (PET)/computed tomography (CT) imaging, in carotid arteries and aorta following a 12-week treatment with losmapimod (7.5 mg once daily [QD] and 7.5 mg twice daily [BID]), in the setting of chronic statin therapy, as compared to placebo. Secondary objectives included safety and tolerability of 12 weeks of dosing with losmapimod (7.5 mg QD or 7.5 mg BID). Inflammatory biomarkers and the effect of losmapimod 7.5 mg QD vs 7.5 mg BID on in-vivo macrophage activity, as assessed by FDG-PET/CT imaging. Ninety-nine patients with vascular inflammation on statins were randomised to losmapimod 7.5 mg once daily (QD), twice daily (BID) or placebo for 84 days. Vascular inflammation was assessed by PET-CT imaging of the carotid arteries and aorta using ^18fluorodeoxyglucose (FDG); the artery with the highest average maximum tissue-to-background ratio (TBR) at baseline (TBR>1.6). […]

[4] = system: hypercholerolesteric patients; details: Circulation. 2011;123:515-523; cited from earlier work

Cc1c(F)cc(C(=O)NC2CC2)cc1-c1ccc(C(=O)NCC(C)(C)C)cn1 [losmapimod, 6-(5-cyclopropylcarbamoyl-3-fluoro-2-methyl-phenyl)-N-(2,2-dimethylpropyl)-nicotinamide]
solubility (physchem): ~5 µg/mL (≈ 13 µM)
size of the infarct by magnetic resonance image, lower versus placebo ([1]; MRI 4-5 days after the index infarct, smaller cohort n=approximately 90): > 20%
BNP levels (surrogate for cardiac function), reduction ([1]; after 12 weeks of treatment): > 20%
size of the index infarct by release of cardiac muscle enzymes ([1]; enzymes measured every 8 hours, treated versus placebo group): unchanged
three month MR imaging of cardiac function and dimensions ([1]; three months of treatment): improved function and smaller overall cardiac dimensions
number of recurrent myocardial infarctions (or episodes of ACS), lower with treatment compared to placebo ([1]; within the first few months beyond the index infarct, not statistically significant): over 15%
high sensitivity C-reactive protein, reduction versus placebo [2]: −28%
CRP level, lower with treatment compared to placebo (CRP and IL6 levels): > 50%
IL6 level, lower with treatment compared to placebo (CRP and IL6 levels): > 50%
proportion of active slices (TBR≧1.6), change from baseline ([3]; 7.5 mg BID, placebo −6.1%, p=0.002, exploratory analysis): −9.8%
change from baseline to day 84 in average maximum TBR (primary end point) ([3]; losmapimod versus placebo, patients on statins): not significantly different
nitric oxide mediated vasodilatation [4]: improves
